Laboratory results: ChEMBL document CHEMBL5532698, “2,3-Dihydroquinazolin-4(1H)-ones and quinazolin-4(3H)-ones as broad-spectrum cytotoxic agents and their impact on tubulin polymerisation” (RSC Med Chem, 2024)
Activity calls are given as the source filed them. The calls are words filed in the database; no cut-off is given here.

Legend:
DU-145 [1] = test: Antiproliferative activity against human DU-145 cells assessed as cell growth inhibition at 25 uM incubated for 72 hrs by MTT assay relative to control; type: functional
A-431 [2] = test: Antiproliferative activity against human A-431 cells assessed as cell growth inhibition incubated for 72 hrs by MTT assay; type: functional
MIA PaCa-2 [3] = test: Antiproliferative activity against human MIA PaCa-2 cells assessed as cell growth inhibition incubated for 72 hrs by MTT assay; type: functional
A2780 [4] = test: Antiproliferative activity against human A2780 cells assessed as cell growth inhibition incubated for 72 hrs by MTT assay; type: functional
BE(2)-C [5] = test: Antiproliferative activity against human BE2C cells assessed as cell growth inhibition at 25 uM incubated for 72 hrs by MTT assay relative to control; type: functional
NCI-H460 [6] = test: Antiproliferative activity against human NCI-H460 cells assessed as cell growth inhibition incubated for 72 hrs by MTT assay; type: functional
MCF7 [7] = test: Antiproliferative activity against human MCF7 cells assessed as cell growth inhibition incubated for 72 hrs by MTT assay; type: functional
HT-29 [8] = test: Antiproliferative activity against human HT-29 cells assessed as cell growth inhibition incubated for 72 hrs by MTT assay; type: functional
NCI-H460 [9] = test: Antiproliferative activity against human NCI-H460 cells assessed as cell growth inhibition at 25 uM incubated for 72 hrs by MTT assay relative to control; type: functional
[10] = Cytotoxicity against human MCF-10A cells assessed as cell growth inhibition at 25 uM incubated for 72 hrs by MTT assay relative to control; type: toxicity, cell-based
DU-145 [11] = test: Antiproliferative activity against human DU-145 cells assessed as cell growth inhibition incubated for 72 hrs by MTT assay; type: functional
U-87 MG [12] = test: Antiproliferative activity against human U87 cells assessed as cell growth inhibition incubated for 72 hrs by MTT assay; type: functional, U-87MG ATCC
A-431 [13] = test: Antiproliferative activity against human A-431 cells assessed as cell growth inhibition at 25 uM incubated for 72 hrs by MTT assay relative to control; type: functional
Tubulin (Homo sapiens) = Tubulin (Homo sapiens) (UniProt P68371+Q9H4B7+P0DPH7+P68366+Q13509+Q71U36+P04350+Q3ZCM7+P07437+P68363+Q9BQE3+Q6PEY2+Q13885+Q9BVA1+Q9BUF5); test: Induction of tubulin (unknown origin) polymerization assessed as microtubule formation by measuring increase in fluorescence at 10 uM by fluorometric analysis; type: protein-complex assay
[14] = Cytotoxicity against human MCF-10A cells assessed as cell growth inhibition incubated for 72 hrs by MTT assay; type: toxicity, cell-based
[15] = Antiproliferative activity against human SJG2 cells assessed as cell growth inhibition at 25 uM incubated for 72 hrs by MTT assay relative to control; type: functional; conditions: SJ-G2
U-87 MG [16] = test: Antiproliferative activity against human U87 cells assessed as cell growth inhibition at 25 uM incubated for 72 hrs by MTT assay relative to control; type: functional, U-87MG ATCC
A2780 [17] = test: Antiproliferative activity against human A2780 cells assessed as cell growth inhibition at 25 uM incubated for 72 hrs by MTT assay relative to control; type: functional
MIA PaCa-2 [18] = test: Antiproliferative activity against human MIA PaCa-2 cells assessed as cell growth inhibition at 25 uM incubated for 72 hrs by MTT assay relative to control; type: functional
MCF7 [19] = test: Antiproliferative activity against human MCF7 cells assessed as cell growth inhibition at 25 uM incubated for 72 hrs by MTT assay relative to control; type: functional
[20] = Antiproliferative activity against human SJG2 cells assessed as cell growth inhibition incubated for 72 hrs by MTT assay; type: functional; conditions: SJ-G2
BE(2)-C [21] = test: Antiproliferative activity against human BE2C cells assessed as cell growth inhibition incubated for 72 hrs by MTT assay; type: functional
HT-29 [22] = test: Antiproliferative activity against human HT-29 cells assessed as cell growth inhibition at 25 uM incubated for 72 hrs by MTT assay relative to control; type: functional

Row | GI50 (A-431 [2]) | GI50 (MIA PaCa-2 [3]) | GI50 (A2780 [4]) | GI50 (NCI-H460 [6]) | GI50 (MCF7 [7]) | GI50 (HT-29 [8]) | GI50 (DU-145 [11]) | GI50 (U-87 MG [12]) | SMILES | inhibition at 25 µM (DU-145 [1]) | inhibition at 25 µM (BE(2)-C [5]) | inhibition at 25 µM (NCI-H460 [9]) | inhibition at 72 h, 25 µM [10] | inhibition at 25 µM (A-431 [13]) | GI50 at 72 h [14] | inhibition at 25 µM [15] | inhibition at 25 µM (U-87 MG [16]) | inhibition at 25 µM (A2780 [17]) | inhibition at 25 µM (MIA PaCa-2 [18]) | inhibition at 25 µM (MCF7 [19]) | GI50 [20] | other results
1 | 2700 nM | 3.2 µM | 2600 nM | 1.9 µM | 2000 nM | 2600 nM | 2.9 µM | 4.1 µM | O=C1NC(c2cccc(Br)c2)Nc2ccccc21 (stereo unspecified) | > 100% | > 100% | 101% | 99% | > 100% | 3.9 µM | > 100% | 98% | 99% | 90% | 104% | 1900 nM | GI50 (BE(2)-C [21]): 2400 nM; inhibition at 25 µM (HT-29 [22]): > 100%
2 | 2100 nM | 4.1 µM | 2600 nM | 3.3 µM | 5800 nM | 1700 nM | 2.3 µM | 2.7 µM | COc1cccc(C2NC(=O)c3ccccc3N2)c1 (stereo unspecified) | > 100% | > 100% | 100% | > 100% | > 100% | 3.2 µM | > 100% | 99% | 100% | 94% | 85% | 3300 nM | GI50 (BE(2)-C [21]): 2300 nM; inhibition at 25 µM (HT-29 [22]): > 100%
3 | 2100 nM | 3.6 µM | 3000 nM | 3.3 µM | 7400 nM | 2200 nM | 4 µM | 4.3 µM | O=C1NC(/C=C/c2ccco2)Nc2ccccc21 (stereo unspecified) | 100% | 100% | 93% | 100% | > 100% | 3.4 µM | 100% | 99% | > 100% | 93% | 83% | 3000 nM | GI50 (BE(2)-C [21]): 2600 nM; inhibition at 25 µM (HT-29 [22]): 90%
4 | 2300 nM | 3.4 µM | 2300 nM | 3.2 µM | 4000 nM | 1600 nM | 3.1 µM | 2.6 µM | Cc1ccc(C2NC(=O)c3ccccc3N2)cc1 (stereo unspecified) | > 100% | 87% | > 100% | 100% | > 100% | 3.1 µM | > 100% | > 100% | > 100% | 95% | 90% | 2900 nM | GI50 (BE(2)-C [21]): 1900 nM; inhibition at 25 µM (HT-29 [22]): > 100%
5 | 3000 nM | 2.8 µM | 2900 nM | 2.9 µM | 2800 nM | 2700 nM | 4.2 µM | 5 µM | O=C1NC(c2ccc3ccccc3c2)Nc2ccccc21 (stereo unspecified) | > 100% | 98% | 100% | 99% | > 100% | 3.5 µM | > 100% | 94% | > 100% | > 100% | 135% | 2800 nM | GI50 (BE(2)-C [21]): 2900 nM; inhibition at 25 µM (HT-29 [22]): > 100%
6 | 8200 nM | 12 µM | 5000 nM | 4.7 µM | 8500 nM | 2600 nM | 3.1 µM | 5.7 µM | O=C1NC(/C(Br)=C/c2ccccc2)Nc2ccccc21 (stereo unspecified) | > 100% | 87% | 97% | 99% | > 100% | 2.9 µM | > 100% | 95% | 94% | 81% | > 100% | 12000 nM | GI50 (BE(2)-C [21]): 10000 nM; inhibition at 25 µM (HT-29 [22]): > 100%

Second part, the compound before the results:

Row | SMILES | GI50 (A-431 [2]) | GI50 (MIA PaCa-2 [3]) | GI50 (A2780 [4]) | GI50 (NCI-H460 [6]) | GI50 (MCF7 [7]) | GI50 (HT-29 [8]) | GI50 (DU-145 [11]) | GI50 (U-87 MG [12]) | inhibition at 25 µM (DU-145 [1]) | inhibition at 25 µM (BE(2)-C [5]) | inhibition at 25 µM (NCI-H460 [9]) | inhibition at 72 h, 25 µM [10] | inhibition at 25 µM (A-431 [13]) | GI50 at 72 h [14] | inhibition at 25 µM [15] | inhibition at 25 µM (U-87 MG [16]) | inhibition at 25 µM (A2780 [17]) | inhibition at 25 µM (MIA PaCa-2 [18]) | inhibition at 25 µM (MCF7 [19]) | GI50 [20] | other results
7 | O=c1[nH]c(/C=C/c2ccccc2)nc2ccccc12 | 640 nM | 2.3 µM | 450 nM | 2.5 µM | 1300 nM | 400 nM | 2.4 µM | 2.7 µM | > 100% | > 100% | > 100% | > 100% | > 100% | 2.3 µM | > 100% | > 100% | > 100% | 96% | > 100% | 2200 nM | Activity (Tubulin (Homo sapiens)): inactive; GI50 (BE(2)-C [21]): 500 nM; inhibition at 25 µM (HT-29 [22]): > 100%
8 | Cc1ccc2[nH]cc(-c3nc4ccccc4c(=O)[nH]3)c2c1 | 570 nM | 1 µM | 1300 nM | 3.7 µM | 280 nM | 390 nM | > 50 µM | 16 µM |  |  |  |  |  | 1.2 µM |  |  |  |  |  | > 50000 nM | Activity (Tubulin (Homo sapiens); filed as activator): Active; GI50 (BE(2)-C [21]): 630 nM
9 | CC(=O)O[C@H]1C(=O)[C@@]2(C)[C@H]([C@H](OC(=O)c3ccccc3)[C@]3(O)C[C@H](OC(=O)[C@H](O)[C@@H](NC(=O)c4ccccc4)c4ccccc4)C(C)=C1C3(C)C)[C@]1(OC(C)=O)CO[C@@H]1C[C@@H]2O |  |  |  |  |  |  |  |  |  |  |  |  |  |  |  |  |  |  |  |  | Activity (Tubulin (Homo sapiens); filed as activator): Active
10 | COC(=O)c1cccc(/C=C/c2nc3ccccc3c(=O)[nH]2)c1 | 6200 nM | 5.6 µM | 4800 nM | 7.2 µM | 2200 nM | 3800 nM | 16 µM | 32 µM | 32% | 47% | 34% | 48% | 8% | 8.5 µM | 43% | 11% | 16% | 39% | 77% | 5500 nM | GI50 (BE(2)-C [21]): 8500 nM; inhibition at 25 µM (HT-29 [22]): 40%
11 | O=C1NC(/C=C/c2ccccc2[N+](=O)[O-])Nc2ccccc21 (stereo unspecified) |  |  |  |  |  |  |  |  | 66% | 53% | 35% | 13% | 40% |  | 81% | 24% | 69% | 32% | 55% |  | Activity (Tubulin (Homo sapiens)): inactive; inhibition at 25 µM (HT-29 [22]): 37%
12 | O=C1NC(c2ccc(-c3ccccc3)cc2)Nc2ccccc21 (stereo unspecified) | 2400 nM | 2.3 µM | 3800 nM | 2.8 µM | 1600 nM | 2300 nM | 2.3 µM | 2.2 µM | > 100% | 92% | > 100% | 98% | > 100% | 2.3 µM | > 100% | > 100% | > 100% | > 100% | > 100% | 2600 nM | GI50 (BE(2)-C [21]): 2000 nM; inhibition at 25 µM (HT-29 [22]): > 100%
13 | Cc1ccc(/C=C/c2nc(O)c3ccccc3n2)cc1 | 4000 nM | 3.3 µM | 3700 nM | 9.4 µM | 1200 nM | 2100 nM | 7.7 µM | 19 µM | 61% | 82% | 69% | 86% | 93% | 3.8 µM | 57% | 51% | 97% | 85% | > 100% | 13000 nM | GI50 (BE(2)-C [21]): 3600 nM; inhibition at 25 µM (HT-29 [22]): > 100%
